Test results reported in the supplement of paper PMC11061612.

Tests used:
Test in all cases: combination Emax (second highest fraction inhibited in the dose matrix, 72 h); higher = more inhibition; extreme values may be limits of the assay
[1] = tested on: NCI-H513 (Other Solid Carcinomas)
Procedure, shortened: (§1)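 Bliss excess equals the observed combination effect minus the expected value EA + EB − EA·EB, where EA and EB are the effects of each agent alone. Combination Emax is the second-highest inhibition within the matrix. Inhibition was scaled from CellTiter-Glo 2.0 luminescence, with 0 set by vehicle wells and 1 by blank wells, after 72 hours of two-drug dosing of cells plated in 1536-well plates.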

[2] = tested on: LC4-1 (B-Lymphoblastic Leukemia)
Procedure, shortened: as §1

[3] = tested on: PF-382 (T-Lymphoblastic Leukemia)
Procedure, shortened: as §1

[4] = tested on: LOU-NH91 (Squamous Cell Lung Carcinoma)
Procedure, shortened: as §1

[5] = tested on: EMC-BAC-2 (Non-Small Cell Lung Carcinoma)
Procedure, shortened: as §1

[6] = tested on: KYSE-50 (Esophageal Squamous Cell Carcinoma)
Procedure, shortened: as §1

[7] = tested on: GOTO (Neuroblastoma)
Procedure, shortened: as §1

[8] = tested on: VMRC-LCD (Lung Adenocarcinoma)
Procedure, shortened: as §1

[9] = tested on: NCI-H2347 (Lung Adenocarcinoma)
Procedure, shortened: as §1

[10] = tested on: PFSK-1 (Other Solid Carcinomas)
Procedure, shortened: as §1

[11] = tested on: DG-75 (Burkitt's Lymphoma)
Procedure, shortened: as §1

[12] = tested on: OVISE (Ovarian Carcinoma)
Procedure, shortened: as §1

[13] = tested on: GI-1 (Glioblastoma)
Procedure, shortened: as §1

[14] = tested on: OCUM-1 (Gastric Carcinoma)
Procedure, shortened: as §1

[15] = tested on: KP-2 (Pancreatic Carcinoma)
Procedure, shortened: as §1

[16] = tested on: KYSE-150 (Esophageal Squamous Cell Carcinoma)
Procedure, shortened: as §1

[17] = tested on: KINGS-1 (Low Grade Glioma)
Procedure, shortened: as §1

[18] = tested on: ASH-3 (Thyroid Gland Carcinoma)
Procedure, shortened: as §1

[19] = tested on: BV-173 (Chronic Myelogenous Leukemia)
Procedure, shortened: as §1

[20] = tested on: NH-12 (Neuroblastoma)
Procedure, shortened: as §1

Compound	combination Emax [1]	combination Emax [2]	combination Emax [3]	combination Emax [4]	combination Emax [5]	combination Emax [6]	combination Emax [7]	combination Emax [8]	combination Emax [9]	combination Emax [10]	combination Emax [11]	combination Emax [12]	combination Emax [13]	combination Emax [14]	combination Emax [15]	combination Emax [16]	combination Emax [17]	combination Emax [18]	combination Emax [19]	combination Emax [20]
COc1cccc(OCCCN)c1-c1cc(Nc2cnc(C#N)cn2)n[nH]1 [Prexasertib] + CCc1c2c(nc3ccc(O)cc13)-c1cc3c(c(=O)n1C2)COC(=O)[C@]3(O)CC [SN-38] (first compound max 1 µM, 7x7, partner max 0.3 µM)	0.695	0.966	0.994	0.936	0.657	0.904	0.94	0.769	0.879	0.815	0.957	0.689	1	0.787	0.837	0.966	0.691	0.989	0.967	0.935
C[C@@H](c1ccc2nccn2c1)n1nnc2ncc(-c3cnn(C)c3)nc21 [Savolitinib] + CC1(C)CCC(CN2CCN(c3ccc(C(=O)NS(=O)(=O)c4ccc(NCC5CCOCC5)c([N+](=O)[O-])c4)c(Oc4cnc5[nH]ccc5c4)c3)CC2)=C(c2ccc(Cl)cc2)C1 [Venetoclax] (first compound max 1 µM, 7x7, partner max 1 µM)	0.0676	1	0.134	0.135	0.0698	0.196	0.266	0.128	0.116	0.302	0.16	0.0991	0.317	0.187	0.148	0.189	0.334	0.16	0.781	0.406
C[C@@H](c1ccc2nccn2c1)n1nnc2ncc(-c3cnn(C)c3)nc21 [Savolitinib] + Cc1c2c(nn1C)CSCc1cc(n(C)n1)CSc1cc(c3ccccc3c1)OCCCc1c(C(=O)O)n(C)c3c-2c(Cl)ccc13 [AZD5991] (first compound max 1 µM, 7x7, partner max 1 µM)	0.0607	0.939	0.134	0.199	0.45	0.298	0.804	0.154	0.107	0.93	0.11	0.148	0.587	0.257	0.205	0.219	0.323	0.299	0.704	0.202
Cn1cnc2c(F)c(Nc3ccc(Br)cc3Cl)c(C(=O)NOCCO)cc21 [Selumetinib] + C=CCn1c(=O)c2cnc(Nc3ccc(N4CCN(C)CC4)cc3)nc2n1-c1cccc(C(C)(C)O)n1 [AZD1775] (first compound max 10 µM, partner max 1 µM)	0.406	0.874	0.974	0.423	0.412	0.605	0.928	0.702	0.468	0.659	0.634	0.593	0.74	0.944	0.54	0.453	0.361	0.367	0.925	0.891
Cn1cnc2c(F)c(Nc3ccc(Br)cc3Cl)c(C(=O)NOCCO)cc21 [Selumetinib] + CC(C)n1c(=O)n(C)c2cnc3cc(F)c(-c4ccc(OCCCN5CCCCC5)nc4)cc3c21 [AZD1390] (first compound max 10 µM, 7x7, partner max 0.3 µM)	0.22	0.158	0.211	0.219	0.278	0.21	0.283	0.15	0.308	0.244	0.277	0.184	0.216	0.951	0.463	0.259	0.232	0.304	0.621	0.482
Cn1cnc2c(F)c(Nc3ccc(Br)cc3Cl)c(C(=O)NOCCO)cc21 [Selumetinib] + CCN(CCO)CCCOc1ccc2c(Nc3cc(CC(=O)Nc4cccc(F)c4)[nH]n3)ncnc2c1 [AZD2811] (first compound max 10 µM, 7x7, partner max 1 µM)	0.264	0.891	0.911	0.372	0.398	0.409	0.648	0.585	0.312	0.313	0.265	0.273	0.286	0.93	0.468	0.492	0.22	0.391	0.952	0.729
Cn1cnc2c(F)c(Nc3ccc(Br)cc3Cl)c(C(=O)NOCCO)cc21 [Selumetinib] + C[C@@H]1COCCN1C2=NC(=NC(=C2)C3(CC3)[S@](=N)(=O)C)C4=C5C=CNC5=NC=C4 [AZD6738] (first compound max 10 µM, 7x7, partner max 10 µM)	0.416	0.91	0.912	0.353	0.557	0.573	0.946	0.732	0.382	0.595	0.807	0.54	0.781	0.951	0.483	0.622	0.292	0.607	0.947	0.91
CC(=O)Nc1cccc(-n2c(=O)n(C3CC3)c(=O)c3c(Nc4ccc(I)cc4F)n(C)c(=O)c(C)c32)c1 [Trametinib] + Cc1nc(-c2cn3c(n2)-c2ccc(-c4cnn(C(C)(C)C(N)=O)c4)cc2OCC3)n(C(C)C)n1 [Taselisib] (first compound max 1 µM, 7x7, partner max 10 µM)	0.757	0.328	0.905	0.672	0.945	0.757	0.701	0.212	0.618	0.604	0.307	0.696	0.766	1	0.74	0.886	0.894	0.962	0.854	0.841
CC1(C)CCC(CN2CCN(c3ccc(C(=O)NS(=O)(=O)c4ccc(NCC5CCOCC5)c([N+](=O)[O-])c4)c(Oc4cnc5[nH]ccc5c4)c3)CC2)=C(c2ccc(Cl)cc2)C1 [Venetoclax] + C1CN(CCC1(C(=O)N[C@@H](CCO)C2=CC=C(C=C2)Cl)N)C3=NC=NC4=C3C=CN4 [Capivasertib] (first compound max 1 µM, 7x7, partner max 3 µM)	0.117	1	0.518	0.36	0.35	0.17	0.365	0.193	0.158	0.518	0.179	0.456	0.412	0.314	0.0692	0.405	0.329	0.285	0.897	0.612
CC1(C)CCC(CN2CCN(c3ccc(C(=O)NS(=O)(=O)c4ccc(NCC5CCOCC5)c([N+](=O)[O-])c4)c(Oc4cnc5[nH]ccc5c4)c3)CC2)=C(c2ccc(Cl)cc2)C1 [Venetoclax] + C=CCn1c(=O)c2cnc(Nc3ccc(N4CCN(C)CC4)cc3)nc2n1-c1cccc(C(C)(C)O)n1 [AZD1775] (first compound max 1 µM, partner max 1 µM)	0.47	1	0.986	0.436	0.404	0.647	0.921	0.391	0.291	0.72	0.833	0.669	0.902	0.653	0.364	0.496	0.567	0.294	0.941	0.952
CC1(C)CCC(CN2CCN(c3ccc(C(=O)NS(=O)(=O)c4ccc(NCC5CCOCC5)c([N+](=O)[O-])c4)c(Oc4cnc5[nH]ccc5c4)c3)CC2)=C(c2ccc(Cl)cc2)C1 [Venetoclax] + CCN(CCO)CCCOc1ccc2c(Nc3cc(CC(=O)Nc4cccc(F)c4)[nH]n3)ncnc2c1 [AZD2811] (first compound max 1 µM, 7x7, partner max 1 µM)	0.183	1	0.905	0.307	0.343	0.413	0.693	0.626	0.145	0.304	0.204	0.311	0.389	0.53	0.228	0.308	0.243	0.318	0.958	0.933
CC1(C)CCC(CN2CCN(c3ccc(C(=O)NS(=O)(=O)c4ccc(NCC5CCOCC5)c([N+](=O)[O-])c4)c(Oc4cnc5[nH]ccc5c4)c3)CC2)=C(c2ccc(Cl)cc2)C1 [Venetoclax] + CN(C)CCCOc1ccc(-c2ccc3ncc4c(c3c2)n(C2CCOCC2)c(=O)n4C)cn1 [AZD0156] (first compound max 1 µM, 7x7, partner max 1 µM)	0.21	1	0.256	0.227	0.25	0.164	0.455	0.153	0.191	0.391	0.125	0.262	0.234	0.284	0.19	0.237	0.301	0.229	0.833	0.483
